Ends that are not written are not given here.

Data set [1] relates to E. coli NCTC10418. In words: Antimicrobial test (broth microdilution). The data set is classed as cell-based, Escherichia coli. The method, then:
(§1) The antimicrobial activities were tested by the broth microdilution method and evaluated by the determination of MIC values against different tested microorganisms, the Gram-positive bacteria, S. aureus (NCTC 10788), E. faecalis (NCTC12697), and MRSA (NCTC 12493); the Gram-negative bacterium, E. coli (NCTC 10418); and the yeast, C. albicans (NCYC 1467). The microorganisms were cultured to their log phase in MHB and diluted to 5 × 10^5 CFU/ml then subsequently treated with peptide solutions of gradient concentrations. After incubation at 37°C overnight, the growth of microorganisms was detected at a wavelength of 550 nm using a Synergy HT plate reader (Biolise BioTek ELx808, Winooski, VT, USA). The MICs were determined as the lowest concentration of peptide where […].

Data set [2] has as its system C. albicans NCYC1467. Nature of the data set: Antimicrobial test (broth microdilution). The class given is cell-based, Candida albicans. As for the experimental part: as §1
Data set [3] deals with horse erythrocytes. In words: Haemolytic test. The data set is classed as cell-based. As to conditions: 32 μM, horse red blood cells, 37°C, 2 h, relative to 1% Triton X-100. As for the experimental part: The haemolysis of Caeridins was tested on prepared defrinated horse red blood cells (TCS Biosciences Ltd., Buckingham, UK) by incubating equal volumes of peptide solutions with erythrocyte suspensions at 37°C for 2 H. Maximum haemolysis control was included by incubating equal volumes of 1% Triton X-100 (Sigma-Aldrich, St. Louis, MO, USA) with erythrocyte suspensions. Lysis of erythrocytes was detected by the measurement of supernatant absorbance at a wavelength of 550 nm using a Synergy HT plate reader (Biolise BioTek ELx808, Winooski, VT, USA). The level of haemolysis was as calculated as (3) Haemolysis %=A−A0/A1−A0×100%, where A represents the absorbance with peptide treatments, A0 represents the average absorbance in untreated erythrocytes, and A1 represents the average absorbance in the maximum haemolysis control (1% Triton X-100-treated).

Data set [4] deals with rat ileum smooth muscle. In words: Rat ileum smooth muscle test. As to conditions: 10^−11 to 10^−6 M. As for the experimental part:
(§2) Female Wistar rats (250–300 g) were euthanized by CO2 asphyxiation followed by cervical dislocation under appropriate Home Office (UK) animal licenses. Full urinary bladder and ileum were carefully removed from the abdomen, then placed in cold Kreb's solution (118 mM NaCl, 4.7 mM KCl, 25 mM NaHCO3, 1.15 mM NaH2PO4, 2.5 mM CaCl2, 1.1 mM MgCl2, and 5.6 mM glucose), equilibrated with a carbogen mixture (95% O2, 5% CO2). The prepared smooth muscles linked with transducers were placed in 2 ml capacity organ baths with Kreb's solution flowing through at 2 ml/min and maintained at 37°C with constant bubbling of carbogen gas mixture (95% O2, […]) and equilibrated for 1 h prior to analysis. Then the viability of these smooth muscle preparations was tested by 60 mM KCl. Caeridins were tested at sequential molar concentrations in the range from 10^−6 M to 10^−11 M. Dose-response curves were depicted for each Caeridin on individual smooth muscle preparations (n = 5). Changes in tension of the smooth muscle preparations were detected by pressure transducers connected to a PowerLab System (ADInstruments Pty Ltd.). Data were recorded and calculated to obtain the means of responses and standard error of means (SEM). The dose-response curve of each Caeridin was established using best-fit algorithms through the data analysis package provided by GraphPad Prism (Version 6.0; GraphPad Software Inc., San Diego, CA, USA), and the comparative EC50 value for each peptide was depicted.

Data set [5] relates to MRSA NCTC12493. In words: Antimicrobial test (broth microdilution). The data set is classed as cell-based, methicillin-resistant S. aureus. As for the experimental part:
as §1

Data set [6] concerns rat urinary bladder smooth muscle. Nature of the data set: Rat urinary bladder smooth muscle test. As to conditions: 10^−11 to 10^−6 M. The method, then:
as §2

The test system of data set [7] is E. coli. Nature of the data set: Membrane permeability on E. coli (ONPG / β-galactosidase). The class given is cell-based, Escherichia coli. The settings on record: ONPG hydrolysis, absorbance 420 nm, 0-30 min, 37°C, 1 × 10^8 CFU/ml, PBS pH 7.4. As for the experimental part: The membrane permeabilsation of E.coli was determined by measuring the release of β-galactosidase activity from E. coli into the culture medium with ONPG as the substrate. The log-phase E. coli was grown in MHB medium containing 2% lactose at 37°C, and the cells were pelleted. The cell pellets were suspended in 10 mM PBS (pH 7.4) containing 1.5 mM ONPG and diluted to 1 × 10^8 CFU/ml. Aliquots of cells were incubated with different concentrations of peptides at 37°C. Permeabilisation was measured at 420 nm every 2 min from 0 to 30 min, which reflects ONPG influx into the cells working as an indicator of the permeability of the tested peptides.

In data set [8] the test system is S. aureus NCTC10788. In words: Antimicrobial test (broth microdilution). The data set is classed as cell-based, Staphylococcus aureus. As for the experimental part:
as §1

For data set [9], the system named is E. faecalis NCTC12697. Nature of the data set: Antimicrobial test (broth microdilution). The class given is cell-based, Enterococcus faecalis. As for the experimental part: as §1
[10] abbreviates: MHB, 5 × 10^5 CFU/ml, 37°C overnight, 550 nm.

Regarding GLFDIVGKLLGGLGL-NH2 [Caeridin-a1], the MBC in data set [1] came to 64 µM; in data set [5], 32 µM; in data set [8], 16 µM; in [9] it was 64 µM. Further, the MIC in [1] (setting [10]) was determined as 32 µM; in data set [2] (setting [10]), 32 µM; in data set [5] (setting [10]) it was 16 µM; in [8] (setting [10]), 8 µM; in data set [9] (setting [10]), 32 µM. Besides, the MFC in [2] came to 64 µM. In addition, the haemolysis in data set [3] turned out to be 18%. Besides, the “smooth muscle activity (rat ileum)” value in data set [4] is “did not show any smooth muscle activities”. The “smooth muscle activity (rat bladder)” value in data set [6] is on record as “did not show any smooth muscle activities”. Further, in [7], the “membrane permeabilisation of E. coli at MIC and MBC” value is listed as “induced inner membrane permeabilisation within 30 min”.

The record behind these values is PMC6079455, “Discovery of Novel Caeridins from the Skin Secretion of the Australian White's Tree Frog, Litoria caerulea” (International Journal of Genomics, 2018).
